US7507860B2 (Pfizer Inc., priority 2004, dated 2009)

Biological target: T1, human androgen receptor (hAR) (Homo sapiens, UniProt P10275)
T1 construct: made in house; host or cells: baculovirus/Sf9 insect cells (crude extract)
T1 sequence (P10275 1-920): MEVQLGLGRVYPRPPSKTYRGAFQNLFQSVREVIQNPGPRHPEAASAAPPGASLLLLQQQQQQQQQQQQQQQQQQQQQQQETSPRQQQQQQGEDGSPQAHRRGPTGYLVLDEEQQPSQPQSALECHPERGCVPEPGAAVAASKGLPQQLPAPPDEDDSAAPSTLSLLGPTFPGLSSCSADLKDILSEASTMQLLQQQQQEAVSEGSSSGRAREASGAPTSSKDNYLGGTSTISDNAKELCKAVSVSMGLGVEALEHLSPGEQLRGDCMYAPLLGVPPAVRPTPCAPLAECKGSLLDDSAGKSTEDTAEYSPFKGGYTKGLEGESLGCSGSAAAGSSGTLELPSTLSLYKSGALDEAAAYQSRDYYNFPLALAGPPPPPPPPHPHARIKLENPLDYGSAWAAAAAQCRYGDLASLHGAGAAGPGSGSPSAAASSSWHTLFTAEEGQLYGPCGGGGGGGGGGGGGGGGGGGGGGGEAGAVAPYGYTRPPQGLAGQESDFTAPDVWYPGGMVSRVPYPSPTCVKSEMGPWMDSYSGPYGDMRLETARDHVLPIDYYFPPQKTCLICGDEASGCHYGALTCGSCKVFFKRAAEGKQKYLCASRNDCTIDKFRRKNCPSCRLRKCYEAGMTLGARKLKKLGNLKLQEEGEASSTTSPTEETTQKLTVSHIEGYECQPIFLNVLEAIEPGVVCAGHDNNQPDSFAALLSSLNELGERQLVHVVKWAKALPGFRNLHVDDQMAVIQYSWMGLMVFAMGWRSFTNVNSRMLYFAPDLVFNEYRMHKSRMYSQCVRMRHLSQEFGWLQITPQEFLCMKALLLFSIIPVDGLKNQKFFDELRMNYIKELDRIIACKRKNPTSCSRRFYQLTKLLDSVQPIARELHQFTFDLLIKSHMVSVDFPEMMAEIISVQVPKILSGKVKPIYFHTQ
Experiment: Competitive binding analysis on baculovirus/Sf9 generated hAR extracts with 3H-DHT tracer
Conditions: hAR extract, 1 nM 3H-DHT, one hour at 4° C; mean of multiple tests; read-out: AR Binding IC50
Experimental: The compounds of Formula I have affinity for the androgen receptor. […] The description below describes how the assay was carried out.
Competitive binding analysis was performed on baculovirus/Sf9 generated hAR extracts in the presence or absence of different concentrations of test agent and a fixed concentration of ^3H-dihydrotestosterone (^3H-DHT) as tracer. This binding assay method is a modification of a protocol previously described (Liao S., et. al. J. Steroid Biochem. 20:11-17 1984). Briefly, progressively decreasing concentrations of compounds are incubated in the presence of hAR extract (Chang et al. P.N.A.S. Vol. 89, pp. […], 1992), hydroxylapatite, and 1 nM^3H-DHT for one hour at 4° C. Subsequently, the binding reactions are washed three times to completely remove excess unbound ^3H-DHT. hAR bound ^3H-DHT levels are determined in the presence of compounds (=i.e competitive binding) and compared to levels bound when no competitor is present (=i.e. maximum binding). Compound binding affinity to the hAR is expressed as the concentration of compound at which one half of the maximum binding is inhibited. Table II below provides the results that were obtained for selected compounds (reported data is the mean of multiple tests as shown below)

Q: “2-(4-Cyano-3-trifluoromethyl-phenoxy)-4-methyl-pentanoic acid (2H-imidazo[1,2-a]pyridin-3-yl)-methyl)amide [Example 60]” was tested. Which IC50 did it give?
A: Its IC50 is 318 nM.

Q: How did the IC50 turn out when `COc1ccc([C@@H](C)NC(=O)C(CC(C)C)Oc2ccc(C#N)c(C(F)(F)F)c2)cc1` (stereo in doubt) [Example 110, 2-(4-Cyano-3-trifluoromethyl-phenoxy)-4-methyl-pentanoic acid [1-(4-methoxy-phenyl)-ethyl]-amide] was run?
A: Its IC50 is 340 nM.

Q: With `CC(C)CC(Oc1ccc(C#N)c(C(F)(F)F)c1)C(=O)N[C@@H](C)c1ccccc1` (stereo in doubt) [Example 112, 2-(4-Cyano-3-trifluoromethyl-phenoxy)-4-methyl-pentanoic acid (1-phenyl-ethyl)-amide] as the molecule, how does the IC50 read?
A: Its IC50 is 329 nM.

Q: For `CC(C)CC(Oc1ccc(C#N)c(C(F)(F)F)c1)C(=O)N[C@H](C)c1ccccc1` (stereo in doubt) [Example 122, 2-(4-Cyano-3-trifluoromethyl-phenoxy)-4-methyl-pentanoic acid (1-phenyl-ethyl)-amide], which IC50 is on record?
A: Its IC50 is 329 nM.

Q: For `CCNC(=O)C(CC(C)C)Oc1ccc(C#N)c(C(F)(F)F)c1` (stereo not shown) [Example 3, 2-(4-Cyano-3-trifluoromethyl-phenoxy)-4-methyl-pentanoic acid ethylamide], which IC50 is on record?
A: Its IC50 is 247 nM.

Q: How did the IC50 turn out when `CCCC(Oc1ccc(C#N)c(C(F)(F)F)c1)C(=O)NC(C)c1ccc(O)cc1` (stereo not shown) [Example 6, 2-(4-Cyano-3-trifluoromethyl-phenoxy)-pentanoic acid [1-(4-hydroxy-phenyl)ethyl]-amide] was run?
A: The IC50 was 455 nM.

Q: For `CC(C)CC(Oc1ccc(C#N)c(C(F)(F)F)c1)C(=O)NCc1ccncc1` (stereo not shown) [Example 16, 2-(4-Cyano-3-trifluoromethyl-phenoxy)-4-methyl-pentanoic acid (pyridin-4-yl-methyl)-amide], which IC50 is on record?
A: Its IC50 is 368 nM.

Q: For `CCCC(Oc1ccc(C#N)c(C(F)(F)F)c1)C(=O)NC(C)c1cccs1` (stereo not shown) [Example 17, 2-(4-Cyano-3-trifluoromethyl-phenoxy)-pentanoic acid (1-thiophen-2-yl-ethyl)amide], which IC50 is on record?
A: The IC50 was 1000 nM.

Q: For `Cc1cccnc1CNC(=O)C(CC(C)C)Oc1ccc(C#N)c(C(F)(F)F)c1` (stereo not shown) [Example 20, 2-(4-Cyano-3-trifluoromethyl-phenoxy)-4-methyl-pentanoic acid (3-methyl-pyridin-2-yl-methyl)-amide], which IC50 is on record?
A: The IC50 was 410 nM.

Q: Which IC50 does the source give for `CSCCCNC(=O)C(CC(C)C)Oc1ccc(C#N)c(C(F)(F)F)c1` (stereo not shown) [Example 21, 2-(4-Cyano-3-trifluoromethyl-phenoxy)-4-methyl-pentanoic acid (3-methylsulfanyl-propyl)-amide] here?
A: The IC50 was 362 nM.

Q: For `CC(C)CC(Oc1ccc(C#N)c(C(F)(F)F)c1)C(=O)NCC1Cc2ccccc2CO1` (stereo not shown) [Example 27, 2-(4-Cyano-3-trifluoromethyl-phenoxy)-4-methyl-pentanoic acid (isochroman-3-yl-methyl)-amide], which IC50 is on record?
A: Its IC50 is 214 nM.

Q: For `CCCC(Oc1ccc(C#N)c(C(F)(F)F)c1)C(=O)NCC1Cc2ccccc2CO1` (stereo not shown) [Example 32, 2-(4-Cyano-3-trifluoromethyl-phenoxy)-pentanoic acid (isochroman-3-yl-methyl)amide], which IC50 is on record?
A: Its IC50 is 407 nM.

Q: Which IC50 does the source give for `CCCC(Oc1ccc(C#N)c(C(F)(F)F)c1)C(=O)NCc1cccc(OC)c1` (stereo not shown) [Example 40, 2-(4-Cyano-3-trifluoromethyl-phenoxy)-pentanoic acid-3-methoxy-benzylamide] here?
A: Its IC50 is 241 nM.

Q: How did the IC50 turn out when `CCCC(Oc1ccc(C#N)c(C(F)(F)F)c1)C(=O)NCCc1ccc(C)cc1` (stereo not shown) [Example 50, 2-(4-Cyano-3-trifluoromethyl-phenoxy)-pentanoic acid-(2-p-tolyl-ethyl)-amide] was run?
A: The IC50 was 399 nM.

Q: `CCCC(Oc1ccc(C#N)c(C(F)(F)F)c1)C(=O)NCCc1ccccc1OC` (stereo not shown) [Example 51, 2-(4-Cyano-3-trifluoromethyl-phenoxy)-pentanoic acid-[2-(2-methoxy-phenyl)ethyl]-amide] was tested. Which IC50 did it give?
A: The IC50 was 381 nM.

Q: Which IC50 does the source give for `CC(C)CC(Oc1ccc(C#N)c(C(F)(F)F)c1)C(=O)N(Cc1ccccc1)C(C)C` (stereo not shown) [Example 63, 2-(4-Cyano-3-trifluoromethyl-phenoxy)-4-methyl-pentanoic acid benzyl-isopropyl-amide] here?
A: The IC50 was 482 nM.
